The record followed here is patent US10287255B2, “Compounds as histone deacetylase 6 inhibitors and pharmaceutical compositions comprising the same” (CHONG KUN DANG PHARMACEUTICAL CORP., priority 2014, dated 2019).

The target of one experiment is T1, human recombinant HDAC1 (Homo sapiens, UniProt Q13547).
T1 construct: purchased Enzo Life Science BML-SE456
Description: HDAC1 enzyme activity inhibition assay (in vitro, fluorimetric). Format: biochemical. The following applies: human recombinant HDAC1, fluorimetric kit, 30° C. 60 minutes. On the procedure: (§1) In order to examine the HDAC6 selectivity of the compounds of formula 1 of the present invention by HDAC1 and HDAC6 enzymatic activity inhibition assays, an experiment was performed using a conventional substance as a control.
(§2) HDAC enzyme activity was measured using a HDAC Fluorimetric Drug Discovery Kit (BML-AK511, 516, Enzo Life Science). For the HDAC1 enzyme activity test, human recombinant HDAC1 (BML-SE456) was used as an enzyme source, and Fluor de Lys®-“SIRT1 (BNL-KI177) was used as a substrate. A 5-fold dilution of the compound was seeded into a 96-well plate, and then 0.3 μg of the enzyme and 10 μM of the substrate were added to each well of the plate and allowed to react at 30° C. for 60 minutes. Then, Fluor de Lys® Developer II (BML-KI176) was added thereto and allowed to react for 30 minutes, after which the fluorescence value (Ex 360, Em 460) was measured using a multi-plate reader (Flexstation 3, Molecular Device). The HDAC6 enzyme was tested using human recombinant HDAC6 (382180) (Calbiochem) according to the same protocol as the HDAC1 enzyme activity test method. Based on the resulting values, each IC50 value was calculated using GraphPad Prism4.0 program.

A further experiment has as its target T2, human recombinant HDAC6 (Homo sapiens, UniProt Q9UBN7).
T2 construct: purchased Calbiochem 382180
T2 sequence (Q9UBN7 1-1215): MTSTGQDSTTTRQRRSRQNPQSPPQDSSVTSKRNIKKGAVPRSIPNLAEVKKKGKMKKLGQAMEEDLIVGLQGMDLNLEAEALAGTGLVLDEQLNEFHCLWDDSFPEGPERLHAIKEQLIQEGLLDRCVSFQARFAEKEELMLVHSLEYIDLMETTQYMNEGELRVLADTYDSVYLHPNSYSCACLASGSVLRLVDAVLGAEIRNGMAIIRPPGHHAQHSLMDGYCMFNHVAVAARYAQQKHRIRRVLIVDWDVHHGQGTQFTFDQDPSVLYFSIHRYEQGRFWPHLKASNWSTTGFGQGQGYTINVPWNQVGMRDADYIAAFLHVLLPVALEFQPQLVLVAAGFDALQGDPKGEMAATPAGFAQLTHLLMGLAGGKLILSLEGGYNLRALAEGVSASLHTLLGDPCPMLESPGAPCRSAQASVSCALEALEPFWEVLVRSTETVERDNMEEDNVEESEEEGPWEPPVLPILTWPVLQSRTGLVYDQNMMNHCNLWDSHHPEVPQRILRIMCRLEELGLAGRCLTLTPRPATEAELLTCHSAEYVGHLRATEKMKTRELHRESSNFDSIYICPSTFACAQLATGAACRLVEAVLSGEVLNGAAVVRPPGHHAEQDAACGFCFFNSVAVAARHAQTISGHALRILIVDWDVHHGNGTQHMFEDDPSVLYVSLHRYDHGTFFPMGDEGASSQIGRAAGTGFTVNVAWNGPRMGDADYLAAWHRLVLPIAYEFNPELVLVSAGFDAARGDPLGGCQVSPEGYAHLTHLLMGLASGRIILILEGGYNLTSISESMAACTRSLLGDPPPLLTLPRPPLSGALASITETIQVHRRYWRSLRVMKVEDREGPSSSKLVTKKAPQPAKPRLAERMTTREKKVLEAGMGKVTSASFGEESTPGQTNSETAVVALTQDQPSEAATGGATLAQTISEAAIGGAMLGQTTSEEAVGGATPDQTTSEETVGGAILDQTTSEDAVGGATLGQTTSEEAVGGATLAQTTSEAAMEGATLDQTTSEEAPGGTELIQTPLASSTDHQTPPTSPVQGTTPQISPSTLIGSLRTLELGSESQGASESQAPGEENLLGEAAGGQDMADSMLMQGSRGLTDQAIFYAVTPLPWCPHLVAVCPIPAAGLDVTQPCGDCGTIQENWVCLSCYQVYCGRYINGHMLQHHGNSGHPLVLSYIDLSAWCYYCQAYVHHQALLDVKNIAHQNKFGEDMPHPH
Nature of the experiment: HDAC6 enzyme activity inhibition assay (in vitro, fluorimetric). As to conditions: for HDAC6 selectivity (fold): HDAC6 selectivity over HDAC1; for IC50: human recombinant HDAC6, fluorimetric kit, same protocol as HDAC1. In kind it is biochemical. On the procedure: as §1, §2

The structures appear in SMILES notation. Some results are limits rather than exact numbers.

T1 sequence (Q13547 whole entry): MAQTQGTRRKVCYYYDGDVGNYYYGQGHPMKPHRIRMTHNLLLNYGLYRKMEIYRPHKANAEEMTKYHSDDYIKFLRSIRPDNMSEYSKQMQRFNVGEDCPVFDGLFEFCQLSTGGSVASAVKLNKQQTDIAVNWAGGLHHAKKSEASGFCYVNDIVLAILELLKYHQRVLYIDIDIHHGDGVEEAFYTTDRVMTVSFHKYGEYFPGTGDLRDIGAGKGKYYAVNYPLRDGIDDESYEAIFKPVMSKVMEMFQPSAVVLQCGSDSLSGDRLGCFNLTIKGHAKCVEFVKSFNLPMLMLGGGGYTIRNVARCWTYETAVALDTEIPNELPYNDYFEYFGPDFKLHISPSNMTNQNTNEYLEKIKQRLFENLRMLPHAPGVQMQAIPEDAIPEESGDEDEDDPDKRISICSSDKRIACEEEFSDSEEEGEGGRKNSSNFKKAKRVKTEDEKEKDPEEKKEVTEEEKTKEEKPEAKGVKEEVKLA

On to `C[C@@H]1CN(Cc2ccc(C(=O)NO)cc2)C[C@H](C)N1C(=O)c1cccc(CN2CCN(C)CC2)c1` [Compound 432, 4-(((3R,5S)-3,5-dimethyl-4-(3-((4-methylpiperazin-1-yl)methyl)benzoyl)piperazin-1-yl)methyl)-N-hydroxybenzamide], for which the IC50 at human recombinant HDAC1 stood at 3400 nM. On human recombinant HDAC6, the “HDAC6 selectivity (fold)” value is recorded as 81 fold and the IC50 was 42 nM.

Turning to `C[C@@H]1CN(CCc2ccc(C(=O)NO)cc2)C[C@H](C)N1Cc1ccccc1` [Compound 218, 4-(2-((3R,5S)-4-benzyl-3,5-dimethylpiperazin-1-yl)ethyl)-N-hydroxybenzamide], the half-maximal inhibitory concentration (IC50) at human recombinant HDAC1 turned out to be 11100 nM. At human recombinant HDAC6, the “HDAC6 selectivity (fold)” value amounted to 15 fold and the 50% inhibitory concentration (IC50) amounted to 749 nM.

As for `C[C@@H]1CN(Cc2ccc(C(=O)NO)cc2)C[C@H](C)N1Cc1cccc(C2=CCOCC2)c1` [Compound 346, 4-(((3R,5S)-4-(3-(3,6-dihydro-2H-pyran-4-yl)benzyl)-3,5-dimethylpiperazin-1-yl)methyl)-N-hydroxybenzamide], the half-inhibitory concentration (IC50) at human recombinant HDAC1 was determined as 8300 nM; on human recombinant HDAC6, 25 nM. Also, the “HDAC6 selectivity (fold)” value at human recombinant HDAC6 is 332 fold.

For `CC(=O)N1CCN(Cc2cccc(C(=O)N3[C@H](C)CN(Cc4ccc(C(=O)NO)cc4)C[C@@H]3C)c2)CC1` [Compound 435, 4-(((3R,5S)-4-(3-((4-acetylpiperazin-1-yl)methyl)benzoyl)-3,5-dimethylpiperazin-1-yl)methyl)-N-hydroxybenzamide], the IC50 at human recombinant HDAC1 was 5100 nM. At human recombinant HDAC6, the “HDAC6 selectivity (fold)” value stood at 57 fold and the half-inhibitory concentration (IC50) was 90 nM.

Turning to `Cc1ccccc1NC(=O)N1C[C@@H](C)N(Cc2ccc(C(=O)NO)cc2)[C@@H](C)C1` [Compound 166, (3R,5S)-4-(4-(hydroxycarbamoyl)benzyl)-3,5-dimethyl-N-o-tolylpiperazine-1-carboxamide], the figures for the IC50 on human recombinant HDAC1 and on human recombinant HDAC6 were 4300 nM and 452 nM, respectively. Further, on human recombinant HDAC6, the “HDAC6 selectivity (fold)” value amounted to 10 fold.

Consider `CCN(CC)Cc1cccc(C(=O)N2C[C@@H](C)N(Cc3ccc(/C=C/C(=O)NO)cc3)[C@@H](C)C2)c1` [Compound 487, (E)-3-(4-(((2S,6R)-4-(3-((diethylamino)methyl)benzoyl)-2,6-dimethylpiperazin-1-yl)methyl)phenyl)-N-hydroxyacrylamide], for which the figures for the half-inhibitory concentration (IC50) at human recombinant HDAC1 and at human recombinant HDAC6 were 1100 nM and 296 nM, respectively. The “HDAC6 selectivity (fold)” value on human recombinant HDAC6 turned out to be 4 fold.

Consider `C[C@@H]1CN(Cc2ccc(C(=O)NO)cc2)C[C@H](C)N1C(=O)Cc1cccc(Cl)c1` [Compound 224, 4-(((3R,5S)-4-(2-(3-chlorophenyl)acetyl)-3,5-dimethylpiperazin-1-yl)methyl)-N-hydroxybenzamide], for which the figures for the half-inhibitory concentration (IC50) at human recombinant HDAC1 and at human recombinant HDAC6 were 1700 nM and 120 nM, respectively. For the same compound, the “HDAC6 selectivity (fold)” value on human recombinant HDAC6 is listed as 14 fold.

For the compound `C[C@@H]1CN(Cc2ccc(C(=O)NO)cc2)C[C@H](C)N1C(=O)Nc1cccc(Cl)c1` [Compound 099, (2S,6R)-N-(3-chlorophenyl)-4-(4-(hydroxycarbamoyl)benzyl)-2,6-dimethylpiperazine-1-carboxamide], the half-inhibitory concentration (IC50) at human recombinant HDAC1 was 12400 nM; at human recombinant HDAC6, 242 nM. For the same compound, at human recombinant HDAC6, the “HDAC6 selectivity (fold)” value came out at 51 fold.

As for `CCN1CC=C(c2ccccc2CN2[C@H](C)CN(Cc3ccc(C(=O)NO)cc3)C[C@@H]2C)CC1` [Compound 485, 4-(((3R,5S)-4-(2-(1-ethyl-1,2,3,6-tetrahydropyridin-4-yl)benzyl)-3,5-dimethylpiperazin-1-yl)methyl)-N-hydroxybenzamide], the IC50 on human recombinant HDAC1 was 14700 nM. In addition, at human recombinant HDAC6, the “HDAC6 selectivity (fold)” value is given as 101 fold and the IC50 is 145 nM.

Turning to `C[C@@H]1CN(Cc2ccc(C(=O)NO)cc2)C[C@H](C)N1C(=O)c1ccncc1` [Compound 405, N-hydroxy-4-(((3R,5S)-4-isonicotinoyl-3,5-dimethylpiperazin-1-yl)methyl)benzamide], the IC50 amounted to 4300 nM on human recombinant HDAC1 and 248 nM on human recombinant HDAC6. For the same compound, the “HDAC6 selectivity (fold)” value at human recombinant HDAC6 was found to be 17 fold.

For the compound `C[C@@H]1CN(Cc2ccc(C(=O)NO)cc2)C[C@H](C)N1C(=O)c1cccc(-c2ccoc2)c1` [Compound 243, 4-(((3R,5S)-4-(3-(furan-3-yl)benzoyl)-3,5-dimethylpiperazin-1-yl)methyl)-N-hydroxybenzamide], the half-inhibitory concentration (IC50) was found to be 3000 nM at human recombinant HDAC1 and 74 nM on human recombinant HDAC6. The “HDAC6 selectivity (fold)” value at human recombinant HDAC6 came out at 40 fold.

Take `C[C@@H]1CN(Cc2ccc(C(=O)NO)cc2)C[C@H](C)N1Cc1cccc(C(=O)N2CCOCC2)c1` [Compound 446, 4-(((3R,5S)-3,5-dimethyl-4-(3-(morpholine-4-carbonyl)benzyl)piperazin-1-yl)methyl)-N-hydroxybenzamide]: the concentration for half-maximal inhibition (IC50) at human recombinant HDAC1 came out at 3800 nM; on human recombinant HDAC6, 114 nM. In addition, the “HDAC6 selectivity (fold)” value at human recombinant HDAC6 is 33 fold.

In the case of `C[C@@H]1CN(Cc2ccc(C(=O)NO)cc2)C[C@H](C)N1C(=O)c1ccc(CN2CCN(S(C)(=O)=O)CC2)cc1` [Compound 463, 4-(((3R,5S)-3,5-dimethyl-4-(4-((4-(methylsulfonyl)piperazin-1-yl)methyl)benzoyl)piperazin-1-yl)methyl)-N-hydroxybenzamide], the concentration for half-maximal inhibition (IC50) on human recombinant HDAC1 is 4700 nM. In addition, on human recombinant HDAC6, the “HDAC6 selectivity (fold)” value turned out to be 18 fold and the IC50 turned out to be 256 nM.

Consider `C[C@@H]1CN(Cc2ccc(C(=O)NO)cc2)C[C@H](C)N1C(=O)NCc1ccccc1` [Compound 161, (2S,6R)-N-benzyl-4-(4-(hydroxycarbamoyl)benzyl)-2,6-dimethylpiperazine-1-carboxamide], for which the IC50 at human recombinant HDAC1 is 2900 nM; on human recombinant HDAC6, 16 nM. Also, the “HDAC6 selectivity (fold)” value at human recombinant HDAC6 is 182 fold.

`C[C@@H]1CN(Cc2ccc(C(=O)NO)cc2)C[C@@H](C)N1Cc1ccccc1` [Compound 248, 4-(((3R,5R)-4-benzyl-3,5-dimethylpiperazin-1-yl)methyl)-N-hydroxybenzamide]: the IC50 on human recombinant HDAC1 was found to be 8500 nM. Moreover, at human recombinant HDAC6, the “HDAC6 selectivity (fold)” value is 96 fold and the IC50 is 89 nM.

In the case of `CC(C)NC(=O)N1[C@H](C)CN(Cc2ccc(C(=O)NO)cc2)C[C@@H]1C` [Compound 098, (2S,6R)-4-(4-(hydroxycarbamoyl)benzyl)-N-isopropyl-2,6-dimethylpiperazine-1-carboxamide], the half-maximal inhibitory concentration (IC50) at human recombinant HDAC1 was more than 10000 nM. Moreover, on human recombinant HDAC6, the “HDAC6 selectivity (fold)” value is reported as more than 133 fold and the IC50 came out at 75 nM.

As for `C[C@@H]1CN(Cc2ccccc2Cl)C[C@H](C)N1Cc1ccc(C(=O)NO)cc1` [Compound 118, 4-(((2S,6R)-4-(2-chlorobenzyl)-2,6-dimethylpiperazin-1-yl)methyl)-N-hydroxybenzamide], at human recombinant HDAC1, the IC50 was determined as 5500 nM. On human recombinant HDAC6, the “HDAC6 selectivity (fold)” value stood at 48 fold and the concentration for half-maximal inhibition (IC50) worked out at 113 nM.

In the case of `C[C@@H]1CN(C(=O)c2cccc(-c3ccnc(F)c3)c2)C[C@H](C)N1Cc1ccc(C(=O)NO)cc1` [Compound 262, 4-(((2S,6R)-4-(3-(2-fluoropyridin-4-yl)benzoyl)-2,6-dimethylpiperazin-1-yl)methyl)-N-hydroxybenzamide], on human recombinant HDAC1, the IC50 stood at 2400 nM. In addition, on human recombinant HDAC6, the “HDAC6 selectivity (fold)” value worked out at 3 fold and the 50% inhibitory concentration (IC50) turned out to be 727 nM.

Regarding `C[C@@H]1CN(C(=O)c2ccc(C(=O)NO)cc2)C[C@H](C)N1Cc1ccccc1` [Compound 814, 4-((3R,5S)-4-benzyl-3,5-dimethylpiperazine-1-carbonyl)-N-hydroxybenzamide], the IC50 on human recombinant HDAC1 amounted to 20600 nM. In addition, on human recombinant HDAC6, the “HDAC6 selectivity (fold)” value is 20 fold and the half-maximal inhibitory concentration (IC50) amounted to 990 nM.

Usually IC50 stands for the concentration that gives 50% inhibition.
